From patent US6153634A, “4,5-azolo-oxindoles” (Hoffmann-La Roche Inc., priority 1999, dated 2000)

How the values were obtained:
human Cyclin E/CDK2 = target: T1, human Cyclin E/CDK2 (Homo sapiens, UniProt P24941); test: CDK2 FlashPlate Assay (inhibition of Rb phosphorylation); format: biochemical; details: Cyclin E/CDK2, Rb-coated FlashPlates; for inhibition at 0.5 µM: Concentration 0.5 μM
T1 construct: made in house; host or cells: insect cells
Protocol: To determine inhibition of CDK2 activity, purified recombinant retinoblastoma (Rb) protein was coated on 96 well FlashPlates (New England Nuclear, Boston, Mass.). Rb is a natural substrate for phosphorylation by CDK2 (Herwig and Strauss Eurr. J. Biochem., Vol. 246 (1997) pp. 581-601 and references therein). Recombinant active human Cyclin E/CDK2 complexes were partially purified from extracts of insect cells. The active Cyclin E/CDK2 was added to the Rb-coated FlashPlates along with ^33 P-ATP and dilutions of test compounds. Plates were incubated for 25 minutes at room temperature with shaking, then washed and counted in the Topcount scintillation counter (Packard Instrument Co., Downers Grove, Ill.). Dilutions of test compounds were tested in duplicate in each assay. The percent inhibition of Rb phosphorylation, which is a measure of the inhibition of CDK2 activity, was determined according to the following formula: [formula] where "test compound" refers to the average counts per minute of the test duplicates, "nonspecific" refers to the average counts per minute when no Cyclin E/CDK2 was added, and "total" refers to the average counts per minute when no compound was added.

MDA-MB-435 = test: Cell-based antiproliferative (MTT) assay, MDA-MB-435 breast carcinoma; details: Homo sapiens, MDA-MB-435, 120 h, cell line MDA-MB435 (breast), 5 days post addition, one experiment mostly, average where repeated
Protocol: The estrogen receptor negative epithelial breast carcinoma line (MDA-MB-435) was purchased from American Type Cell Culture Collection (ATCC; Rockville, Md.) and was grown in the medium recommended by ATCC. For analysis of the effect of the test compounds on growth of these cells, the cells were plated at 2000 cells per well in a 96-well tissue culture plate, and were incubated overnight at 37° C. with 5% CO2. The next day, the test compounds were dissolved in 100% dimethyl sulfoxide (DMSO) to yield a 10 mM stock solution. Each compound was diluted with sterile medium to 1 mM in a sufficient quantity to yield a final concentration of 120 μM. The compounds were then serially diluted in medium with 1.2% DMSO. […] The plates were returned to the incubator, and 5 days post addition of test compound, were analyzed as described below. […] Absorbencies were read in a microtiter plate reader (Molecular Dynamics) at a wavelength of 570 nm with a 650 nm reference. Percent inhibition was calculated by subtracting the absorbance of the blank (no cell) wells from all wells, then subtracting the division of the average absorbance of each test duplicate by the average of the controls from 1.00. Inhibitory concentrations (IC50) were determined from the linear regression of a plot of the logarithm of the concentration versus the percent inhibition.

Row | Compound | inhibition at 0.5 µM (human Cyclin E/CDK2) [%] | further results
1 | COc1cc[nH]c1/C=C1\C(=O)Nc2ccc3[nH]c(NCCCCc4ccccc4)nc3c21 [JJ, (Z)-8-[(3-Methoxy-1H-pyrrol-2-yl)methylene]-2-[N-(4-phenylbutyl)amino]-3,6,7,8-tetrahydro-pyrrolo[3,2-e]benzimidazol-7-one] | < 50 | 
2 | COc1ccccc1Nc1nc2c3c(ccc2[nH]1)NC(=O)/C3=C\c1[nH]ccc1OC [II, (Z)-2-[N-(2-Methoxyphenyl)amino]-8-[(3-methoxy-1H-pyrrol-2-yl)methylene]-3,6,7,8-tetrahydro-pyrrolo[3,2-e]benzimidazol-7-one] | < 50 | 
3 | COc1cc[nH]c1/C=C1\C(=O)Nc2ccc3[nH]c(NCc4ccc(F)cc4)nc3c21 [FF, (Z)-2-[N-[(4-Fluorophenyl)methyl]amino]-8-[(3-methoxy-1H-pyrrol-2-yl)methylene]-3,6,7,8-tetrahydro-pyrrolo[3,2-e]benzimidazol-7-one] | > 50 | 
4 | CCOC(=O)c1ccc(Nc2nc3c4c(ccc3[nH]2)NC(=O)/C4=C\c2[nH]ccc2OC)cc1 [CC, (Z)-4-[[8-[(3-Methoxy-1H-pyrrol-2-yl)methylene]-7-oxo-3,6,7,8-tetrahydro-imidazo[4,5-e]indol-2-yl]amino]-benzoic acid ethyl ester] | < 50 | 
5 | COC(=O)c1ccc(Nc2nc3c4c(ccc3[nH]2)NC(=O)/C4=C\c2[nH]ccc2OC)cc1 [EE, (Z)-4-[[8-[(3-Methoxy-1H-pyrrol-2-yl)methylene]-7-oxo-3,6,7,8-tetrahydro-imidazo[4,5-e]indol-2-yl]amino]-benzoic acid methyl ester] | < 50 | 
6 | COc1cc[nH]c1/C=C1\C(=O)Nc2ccc3[nH]c(-c4ccc(C(=O)O)cc4)nc3c21 [R] |  | IC50 (human Cyclin E/CDK2; 33P-ATP, 25 min room temperature): < 3.5 µM
7 | COc1ccc(CCNc2nc3c4c(ccc3[nH]2)NC(=O)/C4=C\c2[nH]ccc2OC)cc1OC [GG, (Z)-2-[N-[2-(3,4-Dimethoxyphenyl)ethyl]amino]-8-[(3-methoxy-1H-pyrrol-2-yl)methylene]-3,6,7,8-tetrahydro-pyrrolo[3,2-e]benzimidazol-7-one] | < 50 | 
8 | CCOC(=O)CCCNc1nc2c3c(ccc2[nH]1)NC(=O)/C3=C\c1[nH]ccc1OC [LL, (Z)-4-[[8-[(3-Methoxy-1H-pyrrol-2-yl)methylene]-7-oxo-3,6,7,8-tetrahydro-imidazo[4,5-e]indol-2-yl]amino]-butanoic acid ethyl ester] | > 50 | 
9 | COc1cc[nH]c1/C=C1\C(=O)Nc2ccc([N+](=O)[O-])c(N=[N+]=[N-])c21 [M, (Z)-4-Azido-1,3-dihydro-3-[(3-methoxy-1H-pyrrol-2-yl)methylene]-5-nitro-2H-indol-2-one] | > 50 | 
10 | COc1cc[nH]c1/C=C1\C(=O)Nc2ccc3[nH]c(Nc4cccc5ccccc45)nc3c21 [MM, (Z)-8-[(3-Methoxy-1H-pyrrol-2-yl)methylene]-2-[N-(1-naphthyl)amino]-3,6,7,8-tetrahydro-pyrrolo[3,2-e]benzimidazol-7-one] | > 50 | 
11 | Cc1nc[nH]c1/C=C1\C(=O)Nc2ccc3[nH]cnc3c21 [SS, (Z)-8-[(4-Methyl-1H-imidazol-5-yl)methylene]-3,6,7,8-tetrahydro-pyrrolo[3,2-e]benzimidazol-7-one] |  | IC50 (MDA-MB-435): < 3.5 µM
12 | COc1cc[nH]c1/C=C1\C(=O)Nc2ccc3[nH]c(Nc4cccc(C(C)=O)c4)nc3c21 [BB, (Z)-2-[N-(3-Acetylphenyl)amino]-8-[(3-methoxy-1H-pyrrol-2-yl)methylene]-3,6,7,8-tetrahydro-pyrrolo[3,2-e]benzimidazol-7-one] | < 50 | 

Continued, in another order:

Row | inhibition at 0.5 µM (human Cyclin E/CDK2) [%] | Compound | further results
13 | < 50 | COc1cc[nH]c1/C=C1\C(=O)Nc2ccc3[nH]c(NCc4ccc5c(c4)OCO5)nc3c21 [VV, (Z)-2-[N-(1,3-Benzodioxol-5-yl)methylamino]-8-[(3-methoxy-1H-pyrrol-2-yl)methylene]-3,6,7,8-tetrahydro-pyrrolo[3,2-e]benzimidazol-7-one] | 
14 | < 50 | COc1ccc(Nc2nc3c4c(ccc3[nH]2)NC(=O)/C4=C\c2[nH]ccc2OC)cc1 [Z, (Z)-2-[N-(4-Methoxyphenyl)amino]-8-[(3-methoxy-1H-pyrrol-2-yl)methylene]-3,6,7,8-tetrahydro-pyrrolo[3,2-e]benzimidazol-7-one] | 
15 | < 50 | COc1cc[nH]c1/C=C1\C(=O)Nc2ccc3[nH]c(NCCCc4ccccc4)nc3c21 [XX, (Z)-8-[(3-Methoxy-1H-pyrrol-2-yl)methylene]-2-[N-(3-phenylpropyl)amino]-3,6,7,8-tetrahydro-pyrrolo[3,2-e]benzimidazol-7-one] | 
16 | < 50 | COc1ccc(Nc2nc3c4c(ccc3[nH]2)NC(=O)/C4=C\c2[nH]ccc2OC)cc1OC [Y, (Z)-2-[N-(3,4-Dimethoxyphenyl)amino]-8-[(3-methoxy-1H-pyrrol-2-yl)methylene]-3,6,7,8-tetrahydro-pyrrolo[3,2-e]benzimidazol-7-one] | 
17 | < 50 | COc1cc[nH]c1/C=C1\C(=O)Nc2ccc3[nH]c(NCc4cccc5ccccc45)nc3c21 [WW, (Z)-8-[(3-Methoxy-1H-pyrrol-2-yl)methylene]-2-[N-(1-naphthalenyl)methylamino]-3,6,7,8-tetrahydro-pyrrolo[3,2-e]benzimidazol-7-one] | 
18 | > 50 | COc1cc[nH]c1/C=C1\C(=O)Nc2ccc3[nH]c(NCCN4CCCCC4)nc3c21 [NN, (Z)-8-[(3-Methoxy-1H-pyrrol-2-yl)methylene]-2-[N-[2-(N-piperidinyl)ethyl]-amino]-3,6,7,8-tetrahydro-pyrrolo[3,2-e]benzimidazol-7-one] | 
19 | < 50 | COc1cc[nH]c1/C=C1\C(=O)Nc2ccc3[nH]c(Nc4ccc5c(c4)CCC5)nc3c21 [YY, (Z)-2-[N-(2,3-Dihydro-1H-inden-5-yl)amino]-8-[(3-methoxy-1H-pyrrol-2-yl)methylene]-3,6,7,8-tetrahydro-pyrrolo[3,2-e]benzimidazol-7-one] | 
